Experimental data published in US20260091068A1, “METHODS FOR TREATING AND PREVENTING DISEASES” (priority 2017, published 2026).

Experiments:
[1] = test system: bacteriophages from swabs of hands, masks and work surfaces; assay: Bacterial DNA in blood (16S RT-PCR) after water with phages from treated objects and surfaces (Example 5); type: in vivo; settings: average of 3 experiments
Protocol: Fourteen days after including any product enriched with bacteriophage mixture into the mice diet, the mice blood was aseptically taken and bacterial DNA content in the bloodstream was evaluated. Increased DNA content in blood indicates an increase of intestinal permeability reflecting increased translocation of microorganisms from the gastro-intestinal tract into the systemic circulation. (See Deitch E. A., et al. Effect of hemorrhagic shock on bacterial translocation, intestinal morphology, and intestinal permeability in conventional and antibiotic-decontaminated rats. Critical care medicine 18.5 (1990), 529-536). DNA was isolated with a kit for the isolation of nucleic acids DNAQamp Qiagen. Quantitative determination of DNA was carried out by RT-PCR using universal bacterial primers for 16S rRNA (upb2 with a universal FAM-probe for bacteria: (5FAM) aat acg ttc ccg ggt ctt gta cac acc gcc cgt cac act att (3′RTQ1) (SEQ ID NO: 6) and DG74 5′aac tgg agg aag gtg ggg at 3′ (SEQ ID NO: 7)) on Bio-Rad CFX96 amplifier. Reaction conditions: 95° C.—5 min. 45 cycles 95° C.—15 sec, 60° C.—30 sec, fluorescence reading.
Bacteriophages were obtained from the swabs from hands and masks of medical staff and work surfaces in surgical clinics. The hands, masks and surfaces were subjected to various kinds of treatments in order to reduce the amount of phages on them. After the treatment, phages were isolated by the Gratia's method (Kropinski et al. “Enumeration of bacteriophages by double agar overlay plaque assay.” Bacteriophages: Methods and Protocols, Volume 1: Isolation, Characterization, and Interactions, Humana Press, 2009, vol. 501, 69-76). Test material (swabs) was filtered through 0.45 μm Millipore membrane filters. The resulting filtrate was incubated at 60° C. for 60 minutes to inactivate bacteria and was added to 100 μL of water. The resulting solutions were given to animals with water, and the development of an increased intestinal permeability was evaluated as described in Example 4, above. The animals were divided into the following treatment groups:
Group “PHG”: water with the addition of bacteriophages obtained from objects and surfaces treated with a 0.1% (1000 mg/L) polyhexamethylene guanidine derivative preparation. The polyhexamethylene guanidine preparation used in this treatment was prepared by condensation polymerization of hexamethylenediamine with guanidine salt and hydrazine hydrate, as described in U.S. Provisional Pat. Appl. No. 62/510,446, U.S. Pat. No. 8,993,712, U.S. Pat. Appl. Pub. No. 2017/0013838 and Int. Pat. Appl. Pub. No. WO2016/118043.
Group “Photocatalyst”: water with the addition of bacteriophages obtained from objects and surfaces treated with TiO2 and activated by ultraviolet radiation. […]

[2] = test system: bacteriophages isolated from waste water; assay: Bacterial DNA in blood (16S RT-PCR) after diet with phage-enriched, treated products (Example 4); type: in vivo, Wistar rats; settings: blood after 14 days, average of 3 experiments
Protocol: As a source for the isolation of bacteriophages, waste water from canalization was used. The phages were isolated by Gratia's method (Kropinski et al. “Enumeration of bacteriophages by double agar overlay plaque assay.” Bacteriophages: Methods and Protocols, Volume 1: Isolation, Characterization, and Interactions, Humana Press, 2009, vol. 501, 69-76). Test material (waste water) was filtered through 0.45 μm Millipore membrane filters. The resulting filtrate was incubated at 60° C. for 60 minutes to inactivate bacteria and was added to water or products (e.g., milk, yogurt, curd, cheese, minced meat, minced chicken, fish, fruit mix, vegetable mixture) in 100 μL volume. The resulting food products enriched with phages were included in the mice diet. […]
Fourteen days after including any product enriched with bacteriophage mixture into the mice diet, the mice blood was aseptically taken and bacterial DNA content in the bloodstream was evaluated. […] Quantitative determination of DNA was carried out by RT-PCR using universal bacterial primers for 16S rRNA (upb2 with a universal FAM-probe for bacteria: (5FAM) aat acg ttc ccg ggt ctt gta cac acc gcc cgt cac act att (3′RTQ1) (SEQ ID NO: 6) and DG74 5′aac tgg agg aag gtg ggg at 3′ (SEQ ID NO: 7)) on Bio-Rad CFX96 amplifier. […] 45 cycles 95° C.—15 sec, 60° C.—30 sec, fluorescence reading.

[3] = test system: bacteriophages isolated from the feces of obese mice; assay: Body weight after 21 weeks of drinking water with phages from obese mice (Example 6); type: in vivo; settings: treated drinking water with phages from obese mice; standard diet
Protocol: To assess a possibility of preventing changes in the GI microbiota leading to obesity by limiting bacteriophage entry from the environment, bacteriophages were isolated from the feces of Group #1 mice in which obesity was modeled. The obtained phages were added to drinking water of mice (age 12 weeks) from Group #2 for 21 weeks. The diet of the animals remained standard, i.e., not a high fat diet. The mice in Group #2 were divided into the following treatment groups:
Group “Filtration”: water with the addition of bacteriophages, filtered through 0.45 μm Millipore membrane filters.
Group “Pascalization”: water with the addition of bacteriophages, treated with high pressure (340 MPa).
Group “Prototype”: water with the addition of bacteriophages, treated with potassium nitrate.

[4] = test system: hairless mice; assay: General skin elasticity after 36 weeks of water application (Example 7); type: in vivo; settings: vs untreated left part of the back
Protocol: In the experiment, hairless mice, 5 males and 5 females, (C57BL/6 albino/hairless, The Jackson Laboratories) of both sexes were used. Starting from 4 weeks of age, animals were daily treated with tap water or mineral water from artesian source, the water applied on the right half of the back. After 36 weeks, skin condition parameters were evaluated (SoftPlusCPU (Callegaris.p.a.)) in the application area, compared with the untreated left part of the back. Animals were divided into the following treatment groups:
Group “Filtration”: water filtered through 0.22 μm Millipore membrane filters.
Group “Electron”: water treated with an electron flow.
Group “Prototype”: water treated with potassium nitrate.

| SMILES | Number of cycles during which bacterial DNA appears (Cq) [1] [cycles] | Number of cycles during which bacterial DNA appears (Cq) ([2]; phages added to cheese) [cycles] | Number of cycles during which bacterial DNA appears (Cq) ([2]; phages added to water) [cycles] | Animal body weight after 21 weeks [3] [g] | Change in parameter of general skin elasticity ([4]; Tap water) [%] | Change in parameter of general skin elasticity ([4]; Well water) [%] |
| --- | --- | --- | --- | --- | --- | --- |
| [Cu+2] [Metals, Cu^2+] | 29.51 | – | – | – | – | – |
| O=[N+]([O-])[O-].[K+] [Prototype, potassium nitrate] | 17.92 | 19.79 | 17.28 | 46 | −42.9 | −41.4 |
| OO [Peroxide, H2O2] | 31.65 | – | – | – | – | – |
| O=[O+][O-] [Ozone, ozone] | 27.74 | – | – | – | – | – |
